In ChEMBL document CHEMBL3046521, “Synthesis and antitumor activity of (4-hydroxyphenyl)[5-substituted alkyl/aryl)-2-thioxo-1,3,4-thiadiazol-3-yl]methanone and [(3,4-disubstituted)-1,3-thiazol-2ylidene]-4-hydroxybenzohydrazide” (2011):

System: HCC 2998
Test: Anticancer activity in Homo sapiens (human) HCC2998 cells assessed as cell growth at 10^-5 M after 48 hr by SRB assay
Type: functional
Conditions: HCC 2998, 48 h, read-out: Activity

With O=C(c1ccc(O)cc1)n1nc(-c2c(Cl)cccc2Cl)sc1=S the growth at 10 µM was 17.1%.
